From US20230391778A1, “INDOLIN-2-ONE OR PYRROLO -PYRIDIN -2 -ONE DERIVATIVES” (Hoffmann-La Roche Inc., priority 2014, published 2023)

What follows are compounds tested against T1, mouse ENT-1 transporter (Mus musculus, UniProt Q9JIM1) (assay: Measure of adenosine transport activity (ENT1 adenosine uptake inhibition)). Conditions: stable cells expressing mouse ENT-1, [2,8-3H]-adenosine 6 nM, 20 min.
T1 construct: expressed in transfected cells
T1 sequence (Q9JIM1 1-460): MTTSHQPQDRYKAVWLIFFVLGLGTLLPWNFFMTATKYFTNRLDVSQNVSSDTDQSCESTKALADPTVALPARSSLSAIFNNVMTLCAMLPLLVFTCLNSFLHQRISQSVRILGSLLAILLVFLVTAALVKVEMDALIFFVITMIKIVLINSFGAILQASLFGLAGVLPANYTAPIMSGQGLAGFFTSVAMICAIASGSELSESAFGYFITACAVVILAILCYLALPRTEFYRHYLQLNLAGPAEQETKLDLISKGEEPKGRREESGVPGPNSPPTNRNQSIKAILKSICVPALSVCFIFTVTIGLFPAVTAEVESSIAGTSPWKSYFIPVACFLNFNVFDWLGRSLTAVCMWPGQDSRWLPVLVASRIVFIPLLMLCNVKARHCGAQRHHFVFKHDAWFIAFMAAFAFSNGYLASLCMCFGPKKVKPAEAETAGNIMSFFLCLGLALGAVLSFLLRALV
Type: cell-based
Protocol: To measure adenosine transport activity of ENT-1 mammalian cells, stable cells expressing the mouse ENT-1 transporter were plated on day 1 in 96-well culture plates at the density of 60,000 cells/well, in complete DMEM/F12 medium supplemented with glutamax, 10% FBS and 10 μg/ml puromycin. On day 2, the medium was aspirated and the cells were washed twice with uptake buffer (10 mM Hepes-Tris, pH 7.4 containing 150 mM NaCl, 1 mM CaCl2), 2.5 mM KCl, 2.5 mM MgSO4, 10 mM D-glucose) (UB). For inhibition experiments, cells were then incubated at RT with various concentrations of compounds with 1% DMSO final. Non-specific uptake was defined in the presence of 10 μM S-(4-Nitrobenzyl)-6-thioinosine (NBTI, Sigma Cat #N2255).
The plates were then incubated for 20 min with gentle shaking and the reaction was stopped by aspiration of the mixture and washing (three times) with ice-cold UB. The cells were lysed by the addition of scintillation liquid, shaken 3 hours and the radioactivity in the cells was estimated using a microplates scintillation counter (TopCount NXT, Packard).

Compound | IC50
3,3-dimethyl-6-(2-methylpyrimidin-5-yl)-1-(1-(2,2,2-trifluoroethyl)-1H-pyrazol-3-yl)indolin-2-one [Example 139] | 140 nM
5-(3,3-dimethyl-1-(5-methylpyrimidin-2-yl)-2-oxoindolin-6-yl)-2-methylpyrimidine 1-oxide [Example 101] | 2400 nM
Cc1ncc(-c2ccc3c(c2)N(c2ccc(C)[n+]([O-])n2)C(=O)C3(C)C)cn1 (single isomer, unassigned) [Example 106, 3-(3,3-dimethyl-6-(2-methylpyrimidin-5-yl)-2-oxoindolin-1-yl)-6-methylpyridazine 1-oxide] | 481 nM
Cc1ncc(-c2ccc3c(c2)N(c2cccnc2)C(=O)C3(C)C)cn1 [Example 3, 3,3-Dimethyl-6-(2-methylpyrimidin-5-yl)-1-(pyridin-3-yl)indolin-2-one] | 1780 nM
Cc1ncc(-c2ccc3c(c2)N(c2cc(C)n(C)n2)C(=O)C3(C)C)cn1 [Example 5, 1-(1,5-Dimethyl-1H-pyrazol-3-yl)-3,3-dimethyl-6-(2-methylpyrimidin-5-yl)indolin-2-one] | 1050 nM
Cc1cc(N2C(=O)C(C)(C)c3ccc(-c4cnc(C)nc4)cc32)ccn1 [Example 6, 3,3-Dimethyl-1-(2-methylpyridin-4-yl)-6-(2-methylpyrimidin-5-yl)indolin-2-one] | 2130 nM
Cc1cc(N2C(=O)C(C)(C)c3ccc(-c4cnc(C)nc4)cc32)ncn1 [Example 7, 3,3-Dimethyl-1-(6-methylpyrimidin-4-yl)-6-(2-methylpyrimidin-5-yl)indolin-2-one] | 1540 nM
Cc1ccc(-c2ccc3c(c2)N(c2cn(C)cn2)C(=O)C3(C)C)cn1 [Example 10, 3,3-Dimethyl-1-(1-methyl-1H-imidazol-4-yl)-6-(6-methylpyridin-3-yl)indolin-2-one] | 5880 nM
Cc1cc(-c2ccc3c(c2)N(c2cn(C)cn2)C(=O)C3(C)C)ccn1 [Example 11, 3,3-Dimethyl-1-(1-methyl-1H-imidazol-4-yl)-6-(2-methylpyridin-4-yl)indolin-2-one] | 7030 nM
Cc1ccc(N2C(=O)C(C)(C)c3ccc(-c4cnc(C)nc4)cc32)cn1 [Example 12, 3,3-Dimethyl-1-(6-methylpyridin-3-yl)-6-(2-methylpyrimidin-5-yl)indolin-2-one] | 148 nM
Cc1cc(N2C(=O)C(C)(C)c3ccc(-n4cnc(C5CC5)c4)cc32)ccn1 [Example 21, 6-(4-Cyclopropylimidazol-1-yl)-3,3-dimethyl-1-(2-methyl-4-pyridyl)indolin-2-one] | 4020 nM
Cc1ncc(-c2ccc3c(c2)N(c2ccc(C)s2)C(=O)C3(C)C)cn1 [Example 27, 3,3-Dimethyl-6-(2-methylpyrimidin-5-yl)-1-(5-methylthiophen-2-yl)indolin-2-one] | 355 nM
Cc1ncc(-c2ccc3c(c2)N(c2ccc(C#N)nc2)C(=O)C3(C)C)cn1 [Example 30, 5-(3,3-Dimethyl-6-(2-methylpyrimidin-5-yl)-2-oxoindolin-1-yl)picolinonitrile] | 2140 nM
Cc1ncc(-c2ccc3c(c2)N(c2ccc(CO)nc2)C(=O)C3(C)C)cn1 [Example 31, 1-(6-(Hydroxymethyl)pyridin-3-yl)-3,3-dimethyl-6-(2-methylpyrimidin-5-yl)indolin-2-one] | 168 nM
Cc1ccc(N2C(=O)C(C)(C)c3ccc(-n4cnc(C(C)C)c4)cc32)cn1 [Example 33, 6-(4-Isopropylimidazol-1-yl)-3,3-dimethyl-1-(6-methyl-3-pyridyl)indolin-2-one] | 1220 nM
Cc1ncc(N2C(=O)C(C)(C)c3ccc(-n4cnc(C(C)C)c4)cc32)cn1 [Example 38, 6-(4-Isopropylimidazol-1-yl)-3,3-dimethyl-1-(2-methylpyrimidin-5-yl)indolin-2-one] | 426 nM
Cc1ncc(-c2ccc3c(c2)N(c2ccccn2)C(=O)C3(C)C)cn1 [Example 44, 3,3-Dimethyl-6-(2-methylpyrimidin-5-yl)-1-(pyridin-2-yl)indolin-2-one] | 1400 nM
Cc1ncc(-c2ccc3c(c2)N(c2ccncc2F)C(=O)C3(C)C)cn1 [Example 46, 1-(3-Fluoropyridin-4-yl)-3,3-dimethyl-6-(2-methylpyrimidin-5-yl)indolin-2-one] | 3530 nM
Cc1ncc(-c2ccc3c(c2)N(c2cc[nH]n2)C(=O)C3(C)C)cn1 [Example 55, 3,3-Dimethyl-6-(2-methylpyrimidin-5-yl)-1-(1H-pyrazol-3-yl)indolin-2-one] | 2410 nM
Cc1ccnc(N2C(=O)C(C)(C)c3ccc(-c4cnc(C)nc4)cc32)c1 [Example 60, 3,3-Dimethyl-1-(4-methylpyridin-2-yl)-6-(2-methylpyrimidin-5-yl)indolin-2-one] | 3780 nM
Cc1ccnc(N2C(=O)C(C)(C)c3ccc(-c4cnc(C)nc4)cc32)n1 [Example 64, 3,3-Dimethyl-1-(4-methylpyrimidin-2-yl)-6-(2-methylpyrimidin-5-yl)indolin-2-one] | 5090 nM
Cc1ncc(-c2ccc3c(c2)N(c2cn(C)c(C)n2)C(=O)C3(C)C)cn1 [Example 65, 1-(1,2-Dimethyl-1H-imidazol-4-yl)-3,3-dimethyl-6-(2-methylpyrimidin-5-yl)indolin-2-one] | 6740 nM

Results, then the compound that gave them:

IC50 | Compound
3890 nM | Cc1ncc(-c2ccc3c(c2)N(c2cncnc2)C(=O)C3(C)C)cn1 [Example 8, 3,3-Dimethyl-6-(2-methylpyrimidin-5-yl)-1-(pyrimidin-5-yl)indolin-2-one]
1150 nM | Cc1ccc(-c2ccc3c(c2)N(c2ccn(C)n2)C(=O)C3(C)C)cn1 [Example 13, 3,3-Dimethyl-1-(1-methyl-1H-pyrazol-3-yl)-6-(6-methylpyridin-3-yl)indolin-2-one]
3450 nM | Cc1ccc(-c2ccc3c(c2)N(c2ccnc(C)c2)C(=O)C3(C)C)cn1 [Example 19, 3,3-Dimethyl-6-(6-methylpyridin-3-yl)-1-(2-methylpyridin-4-yl)indolin-2-one]
5670 nM | Cc1cc(-c2ccc3c(c2)N(c2ccnc(C)c2)C(=O)C3(C)C)ccn1 [Example 20, 3,3-Dimethyl-1,6-bis(2-methylpyridin-4-yl)indolin-2-one]
8790 nM | Cc1cc(N2C(=O)C(C)(C)c3ccc(-c4cnccc4F)cc32)ccn1 [Example 24, 6-(4-Fluoropyridin-3-yl)-3,3-dimethyl-1-(2-methylpyridin-4-yl)indolin-2-one]
59 nM | Cc1ncc(-c2ccc3c(c2)N(c2ccc(C4CC4)nc2)C(=O)C3(C)C)cn1 [Example 32, 1-(6-Cyclopropylpyridin-3-yl)-3,3-dimethyl-6-(2-methylpyrimidin-5-yl)indolin-2-one]
2460 nM | Cc1cc(N2C(=O)C(C)(C)c3ccc(-n4cnc(C(C)C)c4)cc32)ccn1 [Example 36, 6-(4-Isopropylimidazol-1-yl)-3,3-dimethyl-1-(2-methyl-4-pyridyl)indolin-2-one]
7190 nM | Cc1ncc(-c2ccc3c(c2)N(c2cc(F)ncc2C)C(=O)C3(C)C)cn1 [Example 47, 1-(2-Fluoro-5-methylpyridin-4-yl)-3,3-dimethyl-6-(2-methylpyrimidin-5-yl)indolin-2-one]
1850 nM | Cc1ncc(-c2ccc3c(c2)N(c2nnc(C)o2)C(=O)C3(C)C)cn1 [Example 51, 3,3-Dimethyl-1-(5-methyl-1,3,4-oxadiazol-2-yl)-6-(2-methylpyrimidin-5-yl)indolin-2-one]
6960 nM | Cc1ncc(-c2ccc3c(c2)N(c2ccncc2Cl)C(=O)C3(C)C)cn1 [Example 52, 1-(3-Chloropyridin-4-yl)-3,3-dimethyl-6-(2-methylpyrimidin-5-yl)indolin-2-one]
316 nM | Cc1ccc(N2C(=O)C(C)(C)c3ccc(-c4cnc(C)nc4)cc32)nc1 [Example 56, 3,3-Dimethyl-1-(5-methylpyridin-2-yl)-6-(2-methylpyrimidin-5-yl)indolin-2-one]
27 nM | Cc1cnc(N2C(=O)C(C)(C)c3ccc(-c4cnc(C)nc4)cc32)cn1 [Example 57, 3,3-Dimethyl-1-(5-methylpyrazin-2-yl)-6-(2-methylpyrimidin-5-yl)indolin-2-one]
657 nM | Cc1cncc(N2C(=O)C(C)(C)c3ccc(-c4cnc(C)nc4)cc32)c1 [Example 59, 3,3-Dimethyl-1-(5-methylpyridin-3-yl)-6-(2-methylpyrimidin-5-yl)indolin-2-one]
946 nM | Cc1cccc(N2C(=O)C(C)(C)c3ccc(-c4cnc(C)nc4)cc32)n1 [Example 61, 3,3-Dimethyl-1-(6-methylpyridin-2-yl)-6-(2-methylpyrimidin-5-yl)indolin-2-one]
670 nM | Cc1cncc(N2C(=O)C(C)(C)c3ccc(-c4cnc(C)nc4)cc32)n1 [Example 63, 3,3-Dimethyl-1-(6-methylpyrazin-2-yl)-6-(2-methylpyrimidin-5-yl)indolin-2-one]
